Values after ≈ are worked out from the molar mass of the structure shown. Read-outs that look alike come from different tables or passages of the source.
Tests used:
Type in all cases: cell-based, Klebsiella pneumoniae
[1] = system: K. pneumoniae IMT40061; experiment: microbe, parasite or virus in culture
Method: (§1) Three different strains of K. pneumoniae were investigated in this study which were originally isolated from a human, a pig and a dog (Table 2) and characterized in previous studies ([Krieger et al., 2021]; [Krieger et al., 2022]). Minimum inhibitory concentration (MIC) values were determined according to EUCAST guidelines by microdilution test and are shown in Supplementary Table S1.
(§2) Table S1 Minimum inhibitory concentration (MIC) values of the three K. pneumoniae strains,
(§3) determined according to EUCAST guidelines by microdilution test.
(§4) MIC [µg/mL] of indicated antibiotics

[2] = system: K. pneumoniae 17349; experiment: microbe, parasite or virus in culture
Method: as §1, §2, §3, §4

[3] = system: K. pneumoniae 42KC-108224-1; experiment: microbe, parasite or virus in culture
Method: as §1, §2, §3, §4

[4] = system: all three K. pneumoniae strains; experiment: crystal violet assay, biofilm formation, statements on all three strains; conditions: for biofilm mass, % of the untreated control: all three strains, concentration not given
Method: (§5) To quantify biofilm formation, the crystal violet assay was done as described previously ([Sager et al., 2015]). Specifically, bacteria were grown in 10 mL BHI broth for 18 h at 37°C on a shaking platform (120 rpm). Subsequently 100 μL of a 1:100 dilution of this overnight culture in BHI was transferred to 96-well plates and incubated for 24 h at 37°C. Wells with BHI broth only were used as blank. Five replicates were investigated per strain. After incubation the suspension was discarded, plates were washed three times with tap water and air-dried. Subsequently, 100 μL of 1% crystal violet (T123.1, Th. Geyer GmbH & Co. KG, Renningen, Germany) in distilled water was added to each well and incubated for 15 min at room temperature before rinsing the plates four times with tap water and air-drying them again. One hundred μL of 99% ethanol were added to each well for 15 min at room temperature to dissolve the remaining crystal violet. Subsequently, the optical density at 540 nm (OD540) was measured using the BioTek Synergy H1 microplate reader to quantify biofilm mass remaining in the wells. OD values of the blank were subtracted from all the samples. Each experiment was conducted three times.
(§6) To determine the effect of the AMPs on biofilm formation of K. pneumoniae, a standardized bacterial suspension and serial dilutions of antimicrobial agents were incubated together as conducted for determination of planktonic growth. After incubation the crystal violet assay was performed as described above. The percentage of biofilm formation was calculated based on the growth control. The experiment was conducted at least three times.

[5] = system: K. pneumoniae IMT40061; experiment: crystal violet assay, biofilm formation upon AMP treatment; conditions: 16 μg/mL; 22 h, 37°C, 50% BHI; mean, n ≥ 3
Method: as §5, §6

[6] = system: K. pneumoniae 42KC-108224-1; experiment: as above; conditions: for biofilm mass (crystal violet), percentage of the growth control: 16 μg/mL, 22 h, 37°C, 50% BHI, mean, n ≥ 3; for biofilm formation inhibited to: concentration not given
Method: as §5, §6

[7] = system: K. pneumoniae 42KC-108224-1; experiment: fluorescence assay on mature biofilms (SYTO 9 / propidium iodide); conditions: 24 h treatment of mature biofilm; strongest reduction, concentration not given
Method: The proportion of living and dead bacteria was determined using the fluorescence assay FilmTracer™ LIVE/DEAD biofilm viability kit (L10316, Life Technologies GmbH, Darmstadt, Germany). A bacterial count of 2 × 10^7 CFU/mL was inoculated in 50% BHI broth, 100 μL were added to a 96-well plate in duplicate and plates were incubated for 22 h at 37°C. Wells containing only BHI broth were used as blank. After incubation, the supernatant was discarded and plates were washed three times with sterile PBS. […] After incubation for 24 h at 37°C and washing three times with sterile PBS, 50 μL filter-sterilized water containing 0.15 μL each of SYTO™ 9 stain and propidium iodide stain was added to each well. Plates were incubated for 20 min at room temperature in the dark. The staining solution was discarded and the plates were washed three times with sterile PBS. The fluorescence intensity of the SYTO™ 9 stain (λex = 470 nm, λem = 500 nm) and the propidium iodide stain (λex = 490 nm, λem = 635 nm) were measured on a BioTek Synergy H1 microplate reader and corrected for the blank values. The percentage of fluorescence intensity was calculated based on the negative control. The SYTO™ 9/propidium iodide ratio was calculated. The experiment was conducted at least three times.

[8] = system: K. pneumoniae 17349; experiment: crystal violet assay, biofilm formation upon AMP treatment; conditions: 22 h, 37°C, 50% BHI, mean, n ≥ 3
Method: as §5, §6

[9] = system: K. pneumoniae 17349; experiment: resazurin assay, metabolic activity of biofilm; conditions: 16 μg/mL; 22 h co-incubation, 37°C, 50% BHI; n ≥ 3
Method: Biofilm viability was quantified using the resazurin assay as previously described ([Fontoura et al., 2023]) with minor modifications. A standardized bacterial suspension and serial dilutions of antimicrobial agents were incubated together as conducted for determination of planktonic growth and biofilm formation. After incubation, the bacterial suspension was discarded and plates were washed three times with sterile PBS. One hundred microliters of sterile PBS containing 2 μL of resazurin (6.75 mg/mL, in sterile PBS; R7017-1G, Merck KGaA, Darmstadt, Germany) were added per well. After an incubation of 3–5 h at 37°C fluorescence intensity was measured with an excitation wavelength (λex) of 528 nm and an emission wavelength (λem) of 645 nm by BioTek Synergy H1 microplate reader. Measured values of the blank were subtracted from all the samples. The percentage of metabolic activity was calculated based on the growth control. The experiment was conducted at least three times.

[10] = system: K. pneumoniae 17349; experiment: fluorescence assay on mature biofilms (SYTO 9 / propidium iodide); conditions: 24 h treatment of mature biofilm; concentration not given
[11] = Klebsiella pneumoniae, IMT40061, EUCAST guidelines, microdilution test, read-out: MIC
[12] = Klebsiella pneumoniae, 42KC1082241
[13] = Klebsiella pneumoniae, 17349, EUCAST guidelines, microdilution test, read-out: MIC
[14] = Klebsiella pneumoniae, 42KC1082241, EUCAST guidelines, microdilution test, read-out: MIC
[15] = EUCAST guidelines, microdilution test

C[C@H]1COc2c(N3CCN(C)CC3)c(F)cc3c(=O)c(C(=O)O)cn1c23 [Levofloxacin]
MIC [1, 11]: > 8 µg/mL
MIC ([2]; Klebsiella pneumoniae, 17349): < 0.0625 µg/mL
MIC [3, 12]: < 0.0625 µg/mL

C[C@@H](O)[C@H]1C(=O)N2C(C(=O)O)=C(S[C@@H]3CN[C@H](C(=O)N(C)C)C3)[C@H](C)[C@H]12 [Meropenem]
MIC ([1]; Klebsiella pneumoniae, IMT40061): < 0.125 µg/mL
MIC ([2]; Klebsiella pneumoniae, 17349): < 0.125 µg/mL
MIC [3, 12]: < 0.125 µg/mL

COc1c(N2C[C@@H]3CCCN[C@@H]3C2)c(F)cc2c(=O)c(C(=O)O)cn(C3CC3)c12 [Moxifloxacin]
MIC [1, 11]: > 4 µg/mL
MIC [2, 13]: 0.25 µg/mL (≈ 0.623 µM)
MIC [3, 14]: 0.0625 µg/mL (≈ 0.156 µM)

CCN1CCN(C(=O)N[C@@H](C(=O)N[C@@H]2C(=O)N3[C@@H]2SC(C)(C)[C@@H]3C(=O)O)c2ccccc2)C(=O)C1=O [Piperacillin]
MIC [1, 11]: > 64 µg/mL
MIC [2, 13]: 2 µg/mL (≈ 3.86 µM)
MIC [3, 14]: 4 µg/mL (≈ 7.73 µM)

NC[C@H]1O[C@H](O[C@H]2[C@H](O)[C@@H](O[C@H]3O[C@H](CO)[C@@H](O)[C@H](N)[C@H]3O)[C@H](N)C[C@@H]2N)[C@H](N)C[C@@H]1O [Tobramycin]
MIC [1, 11]: 4 µg/mL (≈ 8.56 µM)
MIC [2, 13]: < 0.125 µg/mL
MIC [3, 14]: 0.25 µg/mL (≈ 0.535 µM)

Ampicillin/Sulbactam
MIC [1, 15]: > 32/4
MIC [2, 15]: 1/4
MIC [3, 15]: 8/4

GIINTLQKYYCRVRGGRCAVLSCLPKEEQIGKCSTRGRKCCRRKK [hbD3, Human defensin, purchased from PeptaNova GmbH]
biofilm mass, % of the untreated control [4]: less than 40%
biofilm mass reduced to ([4]; concentration and strain not given): ≤ 28%

KRFRIRVRV-NH2 [compound 1037, Synthetic antimicrobial peptide]
biofilm mass (crystal violet), percentage of the growth control [5]: 67%
biofilm mass (crystal violet), percentage of the growth control [6]: 53%
viable biofilm mass (SYTO™ 9) [7]: 43%

LLGDFFRKSKEKIGKEFKRIVQRIKDFLRNLVPRTES-OH [LL-37, Human cathelicidin, purchased from GENAXXON bioscience GmbH]
biofilm mass (crystal violet), percentage of the growth control ([8]; 0.5 μg/mL): 140%
biofilm mass (crystal violet), percentage of the growth control ([8]; 16 μg/mL): 13%
biofilm mass, % of the untreated control [4]: less than 40%
metabolic activity of the biofilm (resazurin), percentage of the growth control [9]: 30%

Piperacillin/Tazobactam
MIC [1, 15]: > 64/4
MIC [2, 15]: 1/4
MIC [3, 15]: 1/4

VDKPPYLPRPRPPROIYNO-NH2 [Onc72, Insect-derived proline-rich AMP, derivate of Oncopeltus antibacterial peptide 4]
biofilm mass (crystal violet), percentage of the growth control [6]: 36%
biofilm formation inhibited to [6]: 36%
viable biofilm mass (SYTO™ 9) [7]: 51%

VDKPPYLPRPRPPRrIYNr-NH2 [Onc112, Insect-derived proline-rich AMP, derivate of Oncopeltus antibacterial peptide 4]
biofilm mass (crystal violet), percentage of the growth control [6]: 26%
biofilm formation inhibited to [6]: 26%
viable biofilm mass (SYTO™ 9) [7]: 55%

VRLIVAVRIWRR-NH2 [compound 1018, Synthetic antimicrobial peptide]
viable biofilm mass (SYTO™ 9) [10]: less than 30%
biofilm mass (crystal violet), percentage of the growth control [5]: 61%
biofilm mass (crystal violet), percentage of the growth control [6]: 54%
viable biofilm mass (SYTO™ 9) [7]: less than 30%
